In US20090022821A1, “COMPOSITIONS FROM WAX MYRTLE FOR THE TREATMENT OF CANCER, CARDIOVASCULAR AND INFLAMMATORY DISEASES” (priority 2007, published 2009):

How the values were obtained:
[1] = tested on: Aortic Smooth Muscle Cells (A7r5); test: Methylene Blue Cell Proliferation assay, Aortic Smooth Muscle Cells (A7r5); type: cell-based, rat; conditions: 3 days, methylene blue staining, serum free medium, FIG. 3
Procedure: Inhibition of Proliferation of Aortic Smooth Muscle Cells (A7r5) by wax myrtle extract: The Methylene Blue Cell Proliferation assay assess growth inhibition in a cell-based proliferation assay using protein staining as an estimate of relative cell number. For assessment of cell-based potency, A7r5 (20,000 cells/well) were plated in 96-well plates in the growth media. After 24 h, cells were exposed to compounds at different concentrations. A final concentration of 0.2% DMSO was added to the growth media to keep the compounds in solution. After 3 days, relative cell numbers were estimated using methylene blue staining. The absorbance at 620 nm was read in a microplate reader. Data were analyzed using curve-fitting macros written for Microsoft Excel. Concentrations with IC50 were interpolated using the equation: y=Vmax×[1−(x^n/(K^n+x^n))], where “K” is equal to IC50.

[2] = tested on: Aortic Smooth Muscle Cells (A7r5); test: Induction of apoptosis by Cell Death ELISA (cytoplasmic histone-DNA fragments) in A7r5 cells; type: cell-based, rat; conditions: 24 h treatment, serum free medium, FIG. 4
Procedure: Induction of Apoptosis in Aortic Smooth Muscle Cells (A7r5) by wax myrtle extract and myriceric acid,: Quantitation of apoptotic cell death was determined by Cell Death ELISA (Roche Biochemicals) that measures cytoplasmic histone-DNAfragments produced during apoptosis. Briefly, A7r5 cells (5×10^3/well)were grown in 96-well plates and treated, in triplicates, for 24 h with the indicated doses of wax myrtle extract and myriceric acid A. After treatment, the 96-well plates were centrifuged (200×g) for 10 min. The supernatant was discarded, lysis buffer was added, and samples were incubated at room temperature. Lysates were transferred to reaction wells and incubated with anti-histone biotin and anti-DNA peroxidase antibodies and incubated at room temperature for 2 h. After three washes, the peroxidase substrate was added to each well, and the plates were read at 405 nm after 15-min incubation. The enrichment of histone-DNAfragments treated cells is expressed as absorbance at 405 nm.

[3] = tested on: ET-1-induced [Ca++] flux in rat aortic smooth muscle cells A7r5; conditions: reference (23), cited from earlier work
[4] = target: T1, ET receptor, rat aortic smooth muscle cells (Rattus norvegicus, UniProt P26684); conditions: reference (23), cited from earlier work
T1 construct: endogenous in cells; host or cells: rat aortic smooth muscle cells
T1 sequence (P26684 21-426): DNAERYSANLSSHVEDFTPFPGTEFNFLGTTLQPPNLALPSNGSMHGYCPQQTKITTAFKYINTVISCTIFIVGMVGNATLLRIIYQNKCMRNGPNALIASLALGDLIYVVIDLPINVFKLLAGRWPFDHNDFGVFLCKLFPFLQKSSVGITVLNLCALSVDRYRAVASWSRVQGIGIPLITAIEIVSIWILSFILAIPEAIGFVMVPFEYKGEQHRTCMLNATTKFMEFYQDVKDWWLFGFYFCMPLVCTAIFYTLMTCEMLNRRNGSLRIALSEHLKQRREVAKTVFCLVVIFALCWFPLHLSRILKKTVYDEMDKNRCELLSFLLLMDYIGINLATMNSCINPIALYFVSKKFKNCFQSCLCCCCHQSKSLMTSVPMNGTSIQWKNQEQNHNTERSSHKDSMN

Myriceric acid A
estimated IC50, growth inhibition of A7r5 [1]: 0.87±0.30 […]μg/ml
apoptosis, enrichment of histone-DNA fragments (absorbance at 405 nm) [2]: dose-dependent apoptosis
IC50 ([3]; repeated as I50 for block of ET signaling pathway, read-out: IC50, inhibition of ET-1-induced [Ca++] flux): 11 nM
IC50, inhibition of ET-1-induced [Ca++] flux [3]: 0.0075 µg/mL
Ki, binding of radiolabeled ET to rat aortic smooth muscle cells [4]: 0.04 µg/mL
Ki ([4]; read-out: Ki, binding of radiolabeled ET to rat aortic smooth muscle cells): 66 nM
